Holding throughout (format): physicochemical
The nature of data set [1]: Solubility in CO2 by cloud point determination in a variable volume view cell. Also on record: Pressure Describing Cloud Point Determinations For Surfactant/CO2 Concentrations / Pressure Describing Cloud Point Determinations For Surfactant/CO2Concentrations: unit not given here. Here is the method:
In the following examples, mixtures of acetylenic alcohols or diols and CO2 were prepared by adding the acetylenic alcohol or diol to a stainless steel variable volume view cell equiped with suitable relief devices, high pressure valves CO2 inlet and outlet and a sapphire window at one end. A high pressure syringe pump (High Pressure Products, HIP pump) was filled with liquid CO2 and used to quantitiatively add CO2 to the pressure vessel. The pressure vessel contained a magnetic stirrer and was stirred via a magnetic couple to a magnet located below the vessel.
A weighed amount of surfactant (0.5-10 weight %) was placed inside the cell chamber in front of the piston. The cell window was attached and 10 cc ? s of CO2, was added to the cell. The surfactant was mixed in the CO2 using a magnetic stirring bar. The cell was mounted in horizontally and then immersed in a water bath. After allowing the high pressure cell to attain thermal equilibrium the pressure within the cell was varied using a floating piston. The pressure was changed to monitor the cloud point as being indicative of insolubility. The operator viewed the floating piston through the sapphire window using a suitable optic device, the onset of insolubility was taken when the translucent solution changed to an orange/brown color due to the Tindall light scattering of the insoluble droplets. The onset of insolubility was checked several times by varying the pressure using the high pressure syringe pump.
A water bath was used to vary the temperature for each concentration. On completing the solubility studies at one concentration and one temperature series, a calibrated injector loop attached to the high pressure cell was filled with the surfactant via a syringe. Utilizing a six way valve to help inject this fixed amount of surfactant, the surfactant concentration within the high pressure cell was increased by a fixed increment. The solubility studies for this new CO2/surfactant concentration were measured at various temperatures in a similar manner to that previously described.

Data set [2] can be described thus: Interfacial tension of a PEG 600 drop in CO2/surfactant solution via pendant drop technique. As to conditions: for Interfacial Tension IFT: PEG (600) drop, 2 weight % Surfynol/CO2 solution. The source says:
Interfacial activity can be monitored using the 'pendant drop' technique, ("Chemistry of Interfaces" M.J.Jaycock & Parfitt, John Wiley and Sons, New York p49-51). This method is utilized to measure the interfacial tension between a pendant drop and a continuous phase that surrounds the drop. When carbon dioxide is used as the continuous media, special high pressure equipment with sapphire view ports is required to maintain a solution of CO2 and surfactant, and to study the change in shape of the pendant drop for interfacial tension calculations. A general procedure for these high pressure phase behavior measurements may be found in Langmuir, vol. 10 1994, pg 3536-3541, by K. Harrison, K. P. Johnston, J. Goveas and E. A. O ? Rear.
Various ethoxylates of 2,4,7,9-tetramethyl-5-decyn-4,7-diol were used in the interfacial tension study. Table 3 gives the interfacial tension observed for ethoxylates of 2,4,7,9-tetramethyl-5-decyn-4,7-diol containing 20, 40, and 65 wt% ethylene oxide. The table also gives the interfacial tension of the polyethyleneglycol (PEG 600)drop within the pure CO2 media. […] It is interesting to note the actual reduction in interfacial tension. For a control PEG 600 drop at 2510 psi the interfacial tension was measured to be 3.39 dyne/cm (run #5in Table 3). […] This corresponds to lowering the interfacial tension by 0.54 dyne/cm, a 16% reduction. A surfactant/CO2 solution of 2 weight % (using the 40 wt% ethoxylated Surfynol surfactant) gave an interfacial tension of 1.57 dyne/cm. at a CO2 pressure of 4030 psi (run #33in Table 3). The corresponding PEG drop at 4093psi used as the control gave an interfacial tension of 1.92dyne/cm (run #18 in Table 3).

Data set [3] can be described thus: PEG (MW=600) uptake by surfactant/CO2 mixture (phase behavior, cloud point). The conditions noted are these: Wt% Surfactant in CO2 0.897%.
The mark [4] stands for this setting: 2 weight % in CO2 at 2501 psi vs control PEG 600 drop at 2510 psi.

Take `C#CC(C)(O)CC(C)C` (stereo not drawn) [3,5-dimethyl-1-hexyn-3-ol]: the “Pressure Describing Cloud Point Determinations For Surfactant/CO2 Concentrations” value in data set [1] (Surfactant Concn. in CO2 0.50 wt%, 35°C) was found to be 1480; in data set [1] (Surfactant Concn. in CO2 0.50 wt%, 45°C), 1800; in data set [1] (Surfactant Concn. in CO2 0.50 wt%, 55°C), 2200; in data set [1] (Surfactant Concn. in CO2 1.50 wt%, 35°C) it was 1530; in data set [1] (Surfactant Concn. in CO2 1.50 wt%, 45°C) it was 1900; in data set [1] (Surfactant Concn. in CO2 1.50 wt%, 55°C) it was 2260. Further, the “Pressure Describing Cloud Point Determinations For Surfactant/CO2 Concentrations” value in data set [1] (Surfactant Concn. in CO2 2.50 wt%, 35°C) amounted to 1500; in data set [1] (Surfactant Concn. in CO2 2.50 wt%, 45°C), 1860; in data set [1] (Surfactant Concn. in CO2 2.50 wt%, 55°C), 2210; in data set [1] (Surfactant Concn. in CO2 5.00 wt%, 35°C), 1380; in data set [1] (Surfactant Concn. in CO2 5.00 wt%, 45°C), 1770; in data set [1] (Surfactant Concn. in CO2 5.00 wt%, 55°C), 2120. Also, the “Pressure Describing Cloud Point Determinations For Surfactant/CO2 Concentrations” value in data set [1] (Surfactant Concn. in CO2 7.60 wt%, 35°C) came to 1280; in data set [1] (Surfactant Concn. in CO2 7.60 wt%, 45°C), 1680; in data set [1] (Surfactant Concn. in CO2 7.60 wt%, 55°C) it was 2030; in data set [1] (Surfactant Concn. in CO2 10.20 wt%, 35°C), 1200; in data set [1] (Surfactant Concn. in CO2 10.20 wt%, 45°C), 1590; in data set [1] (Surfactant Concn. in CO2 10.20 wt%, 55°C), 1950. In addition, the “solubility levels by weight to CO2” value in data set [1] (in CO2) is recorded as 10.2 % by weight.

As to “Ethoxylated 2,4,7,9-Tetramethyl-5-decyn-4,7-diol [AP-420]”, the “lowering the interfacial tension” value in data set [2] (setting [4]) amounted to 0.54 dyne/cm. In addition, the “reduction in interfacial tension” value in data set [2] (setting [4]) is 16%. The “Interfacial Tension IFT” value amounted to 3.45 dyne/cm in data set [2] (1984 psi (137 bar)); 3.05 dyne/cm in data set [2] (2140 psi (148 bar)); 2.75 dyne/cm in data set [2] (2498 psi (172 bar)); 2.85 dyne/cm in data set [2] (2501 psi (173 bar)); 2.32 dyne/cm in data set [2] (3007 psi (207 bar)); 1.83 dyne/cm in data set [2] (3574 psi (246 bar)). For the same molecule, the “Pressure Describing Cloud Point Determinations For Surfactant/CO2Concentrations” value in data set [1] (Surfactant Concn. in CO2 1.3646 wt%, 25°C) turned out to be 1410; in data set [1] (Surfactant Concn. in CO2 1.3646 wt%, 35°C) it was 2040; in data set [1] (Surfactant Concn. in CO2 1.3646 wt%, 60°C), 3060; in data set [1] (Surfactant Concn. in CO2 2.6028 wt%, 35°C), 2710; in data set [1] (Surfactant Concn. in CO2 2.6028 wt%, 60°C) it was 4040; in data set [1] (Surfactant Concn. in CO2 2.6028 wt%, 65°C) it was 4330. The “Pressure Describing Cloud Point Determinations For Surfactant/CO2Concentrations” value in data set [1] (Surfactant Concn. in CO2 3.2104 wt%, 35°C) stood at 2990; in data set [1] (Surfactant Concn. in CO2 3.2104 wt%, 60°C), 3950; in data set [1] (Surfactant Concn. in CO2 3.2104 wt%, 65°C), 4330; in data set [1] (Surfactant Concn. in CO2 3.8330 wt%, 25°C), 1870; in data set [1] (Surfactant Concn. in CO2 3.8330 wt%, 45°C) it was 2860; in data set [1] (Surfactant Concn. in CO2 3.8330 wt%, 65°C) it was 3770. In data set [1] (in CO2), the “surfactant is soluble in CO2” value is reported as “up to 4 wt%”.

As for “Ethoxylated 2,4,7,9-Tetramethyl-5-decyn-4,7-diol [AP-440]”, the “reduction in interfacial tension” value in data set [2] (2 weight % in CO2 at 4030 psi vs control PEG drop at 4093psi) is 18.2%. Also, the “Interfacial Tension IFT” value in data set [2] (3146 psi (217 bar)) came to 2.04 dyne/cm; in data set [2] (3522 psi (243 bar)) it was 1.96 dyne/cm; in data set [2] (3536 psi (244 bar)), 1.93 dyne/cm; in data set [2] (4028 psi (278 bar)) it was 1.56 dyne/cm; in data set [2] (4030 psi (278 bar)), 1.57 dyne/cm; in data set [2] (4568 psi (315 bar)) it was 1.38 dyne/cm. Besides, the “Interfacial Tension IFT” value in data set [2] (4592 psi (317 bar)) came out at 1.35 dyne/cm. For the same molecule, the “Pressure Describing Cloud Point Determinations For Surfactant/CO2Concentrations” value in data set [1] (Surfactant Concn. in CO2 0.6159 wt%, 25°C) turned out to be 1200; in data set [1] (Surfactant Concn. in CO2 0.6159 wt%, 45°C), 1750; in data set [1] (Surfactant Concn. in CO2 1.2484 wt%, 25°C), 1840; in data set [1] (Surfactant Concn. in CO2 1.2484 wt%, 35°C), 2610; in data set [1] (Surfactant Concn. in CO2 1.8749 wt%, 60°C), 3740; in data set [1] (Surfactant Concn. in CO2 2.8386 wt%, 25°C), 2580. The “Pressure Describing Cloud Point Determinations For Surfactant/CO2Concentrations” value in data set [1] (Surfactant Concn. in CO2 2.8386 wt%, 45°C) turned out to be 4300; in data set [1] (Surfactant Concn. in CO2 2.8386 wt%, 60°C), 4510; in data set [1] (Surfactant Concn. in CO2 4.0446 wt%, 25°C), 2700; in data set [1] (Surfactant Concn. in CO2 4.0446 wt%, 35°C), 3740; in data set [1] (Surfactant Concn. in CO2 4.0446 wt%, 45°C), 4440; in data set [1] (Surfactant Concn. in CO2 4.0446 wt%, 60°C), 4670. Moreover, the “Wt% of PEG (MW=600) uptake” value in data set [3] (4040 psi 25°C) turned out to be 1.091%; in data set [3] (4550 psi 25°C), 1.360%; in data set [3] (5220 psi 25°C), 1.627%.

The values above are taken from patent EP0830890A1, “Surfactants for use in liquid/supercritical CO2” (AIR PRODUCTS AND CHEMICALS, INC., priority 1996, dated 1998).
